# Measurements: ChEMBL document CHEMBL1136071, “Synthesis and biological evaluation of hydroxamate-Based inhibitors of glutamate carboxypeptidase II” (Bioorg Med Chem Lett, 2003)
# pIC50, pKi: −log10 of the molar value.
# Biological target: Bacterial leucyl aminopeptidase (Vibrio proteolyticus, UniProt Q01693)
# Test: Inhibition of metalloprotease from family M28, Aeromonas proteolytica aminopeptidase
# Sequence of Bacterial leucyl aminopeptidase (Q01693 whole entry): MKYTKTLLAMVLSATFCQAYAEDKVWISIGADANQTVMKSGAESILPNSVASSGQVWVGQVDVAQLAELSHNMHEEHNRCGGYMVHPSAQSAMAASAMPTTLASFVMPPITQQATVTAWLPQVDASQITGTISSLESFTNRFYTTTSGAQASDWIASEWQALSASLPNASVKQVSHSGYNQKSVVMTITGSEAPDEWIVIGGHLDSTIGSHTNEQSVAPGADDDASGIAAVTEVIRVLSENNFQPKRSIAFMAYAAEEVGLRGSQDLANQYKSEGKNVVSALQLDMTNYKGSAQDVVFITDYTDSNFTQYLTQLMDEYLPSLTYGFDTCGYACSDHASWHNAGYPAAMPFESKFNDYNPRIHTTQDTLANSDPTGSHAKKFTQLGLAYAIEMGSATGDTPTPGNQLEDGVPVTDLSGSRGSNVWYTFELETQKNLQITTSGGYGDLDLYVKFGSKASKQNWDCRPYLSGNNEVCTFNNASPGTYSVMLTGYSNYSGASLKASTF
row,pKi,SMILES
1,6.46,CC(C)C[C@H](N)C(=O)NO
2,8.70,CC(C)C[C@@H](N)C(=O)NO

# Biological target: Glutamate carboxypeptidase 2 (Homo sapiens, UniProt Q04609)
# Sequence (Q04609 whole entry): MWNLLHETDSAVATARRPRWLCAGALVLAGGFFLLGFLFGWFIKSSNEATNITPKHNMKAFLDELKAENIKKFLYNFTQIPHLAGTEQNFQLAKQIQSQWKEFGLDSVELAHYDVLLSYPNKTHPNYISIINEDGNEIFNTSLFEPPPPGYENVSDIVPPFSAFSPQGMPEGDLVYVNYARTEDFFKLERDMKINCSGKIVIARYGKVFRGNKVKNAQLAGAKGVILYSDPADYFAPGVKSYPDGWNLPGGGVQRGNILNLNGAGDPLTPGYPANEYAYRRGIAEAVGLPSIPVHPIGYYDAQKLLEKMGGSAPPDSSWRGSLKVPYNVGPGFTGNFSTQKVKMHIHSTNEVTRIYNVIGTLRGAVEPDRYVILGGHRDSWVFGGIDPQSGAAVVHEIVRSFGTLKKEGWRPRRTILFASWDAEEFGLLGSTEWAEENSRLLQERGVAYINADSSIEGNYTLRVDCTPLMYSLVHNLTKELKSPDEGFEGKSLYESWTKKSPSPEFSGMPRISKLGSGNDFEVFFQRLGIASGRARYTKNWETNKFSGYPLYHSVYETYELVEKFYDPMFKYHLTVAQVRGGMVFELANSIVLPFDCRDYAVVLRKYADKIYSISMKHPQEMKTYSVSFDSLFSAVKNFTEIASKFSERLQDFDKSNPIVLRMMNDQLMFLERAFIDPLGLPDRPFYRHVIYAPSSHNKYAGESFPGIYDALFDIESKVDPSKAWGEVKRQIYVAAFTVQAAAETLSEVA
# Test: Inhibition of Glutamate carboxypeptidase II
row,SMILES,pIC50
1,CC(=O)N[C@H](CC(=O)O)C(=O)NO,< 4.00
2,N[C@@H](CCC(=O)NO)C(=O)O [GLUTAMINE HYDROXAMATE],< 4.00
3,N[C@@H](CC(=O)NO)C(=O)O,< 4.00
4,CC(=O)N[C@@H](CC(=O)O)C(=O)NO,< 4.00

# The remaining lines, values ahead:
row,pIC50,SMILES
1,4.37,O=C(O)CCC(=O)NO
2,5.92,O=C(O)CCC(CCC(=O)NO)C(=O)O (stereo not drawn)
3,< 4.00,N[C@H](CC(=O)NO)C(=O)O
4,7.09,O=C(O)CCC(CP(=O)(O)Cc1c(F)c(F)c(F)c(F)c1F)C(=O)O (stereo not drawn)
5,6.66,O=C(O)CCC(CC(=O)NO)C(=O)O (stereo not drawn)
6,6.03,O=C(O)CCC(CCCC(=O)NO)C(=O)O (stereo not drawn)
7,4.70,O=C(O)CCC(CC(=O)O)C(=O)O (stereo not drawn)
